Measured values published in US20130035256A1, “Chimeric Polypeptides Useful in Proximal and Dynamic High-Throughput Screening Methods” (ADDEX PHARMA SA, priority 2010, published 2013).
Structures can show the parent of a compound that is named as a salt. Marks after values point to notes of the source that are not given here.

What was measured:
[1] = molecular target: T1, chimeric M4R (RGLG-2) (Homo sapiens, UniProt P08173); assay: BRET assay of the invention, cells co-expressing chimeric M4R (RGLG-2) and FP-Gγ9; type: cell-based; conditions: for Invention assay % stim: compound tested alone; for Invention assay % enh: in presence of EC20 value of Ach; for Invention assay % inh: in presence of EC80 of Ach; for activation of the chimeric M4R (BRET): increasing concentrations of ligand
T1 construct: ID; NOs; expressed in transfected cells
T1 sequence (P08173 with tags, fused parts or gaps): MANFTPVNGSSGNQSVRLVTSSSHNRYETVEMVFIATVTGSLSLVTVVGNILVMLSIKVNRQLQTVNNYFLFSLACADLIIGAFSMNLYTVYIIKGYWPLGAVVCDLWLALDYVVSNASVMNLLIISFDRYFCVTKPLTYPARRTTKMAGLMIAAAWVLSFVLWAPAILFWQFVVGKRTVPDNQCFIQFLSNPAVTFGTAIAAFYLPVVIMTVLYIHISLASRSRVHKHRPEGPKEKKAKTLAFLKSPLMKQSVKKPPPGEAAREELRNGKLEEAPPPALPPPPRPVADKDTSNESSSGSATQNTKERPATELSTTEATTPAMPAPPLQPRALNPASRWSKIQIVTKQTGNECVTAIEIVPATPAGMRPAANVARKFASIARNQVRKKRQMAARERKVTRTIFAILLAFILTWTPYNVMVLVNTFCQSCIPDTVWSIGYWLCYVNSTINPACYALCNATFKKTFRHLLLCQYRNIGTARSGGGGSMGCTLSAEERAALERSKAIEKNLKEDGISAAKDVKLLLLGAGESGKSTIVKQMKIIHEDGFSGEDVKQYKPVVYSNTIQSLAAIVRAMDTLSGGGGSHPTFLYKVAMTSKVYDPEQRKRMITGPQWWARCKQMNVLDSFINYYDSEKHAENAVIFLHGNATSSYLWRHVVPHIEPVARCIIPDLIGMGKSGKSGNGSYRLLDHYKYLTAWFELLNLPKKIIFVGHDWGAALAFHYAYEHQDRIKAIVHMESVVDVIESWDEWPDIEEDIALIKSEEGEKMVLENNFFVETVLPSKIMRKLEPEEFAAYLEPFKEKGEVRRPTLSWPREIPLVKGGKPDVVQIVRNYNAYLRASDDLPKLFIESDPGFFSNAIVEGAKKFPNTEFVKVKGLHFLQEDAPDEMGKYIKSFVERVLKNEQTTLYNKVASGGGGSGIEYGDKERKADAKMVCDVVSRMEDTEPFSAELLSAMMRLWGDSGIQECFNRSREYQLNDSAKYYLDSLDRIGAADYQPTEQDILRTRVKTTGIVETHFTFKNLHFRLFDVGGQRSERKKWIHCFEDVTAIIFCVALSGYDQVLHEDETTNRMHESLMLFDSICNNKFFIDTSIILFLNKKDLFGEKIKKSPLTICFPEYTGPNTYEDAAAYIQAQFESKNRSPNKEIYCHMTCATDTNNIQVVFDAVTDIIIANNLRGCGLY
Procedure: The same cells as described for FIG. 10 A were used. […] The decrease of the signal below baseline in the PTX-treated condition confirms a constitutive activity that has been described for the M4R. […]
A typical experiment has the following sequence.
(§1) The assay of the present invention was compared with a state of the art calcium based assay. […] In calcium-based assay, a calcium flux is measured in cells co-expressing recombinant M4R and modified Gαq. In the assay in accordance with the present invention, BRET in measured in cells co-expressing a chimeric M4R according to RGLG-2 (construct and cell-line from FIG. 2C, Table 6) and FP-Gγ9 (as described in FIG. 10A). The data represent mean values and they are normalized to the maximal effect of the orthosteric agonist after the subtraction of the basal values.

[2] = molecular target: T2, M4R (Homo sapiens, UniProt P08173); assay: Calcium-based assay, calcium flux in cells co-expressing recombinant M4R and modified Gαq; type: cell-based; conditions: for Calcium-based assay % stim: compound tested alone; for Calcium-based assay % enh: in presence of EC20 value of Ach; for Calcium-based assay % inh: in presence of EC80 of Ach
T2 construct: expressed in transfected cells
T2 sequence (P08173 1-479): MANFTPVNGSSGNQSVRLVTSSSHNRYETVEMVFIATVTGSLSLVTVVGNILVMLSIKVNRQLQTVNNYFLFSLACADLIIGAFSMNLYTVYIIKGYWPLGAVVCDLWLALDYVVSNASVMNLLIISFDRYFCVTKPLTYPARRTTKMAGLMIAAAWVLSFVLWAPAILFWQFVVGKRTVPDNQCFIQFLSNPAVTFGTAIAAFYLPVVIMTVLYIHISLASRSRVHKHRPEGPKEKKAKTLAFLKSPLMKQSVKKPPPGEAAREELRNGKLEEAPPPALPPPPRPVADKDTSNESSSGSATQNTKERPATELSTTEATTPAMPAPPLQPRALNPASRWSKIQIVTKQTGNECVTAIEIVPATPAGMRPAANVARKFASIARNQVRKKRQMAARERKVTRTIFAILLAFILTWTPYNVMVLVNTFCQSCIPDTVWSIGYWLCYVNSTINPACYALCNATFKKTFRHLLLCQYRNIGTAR
Procedure: as §1

[3] = activity @ 30uM or 30 ug/ml, normalized to maximal effect of the orthosteric agonist

In the case of Cc1ccc2c(c1)C(=O)C1(O)CCN(c3ccccc3)C1=N2 (racemic) [(±)-Blebbistatin], the “Invention assay % stim” value [1, 3] is reported as −7.2%, the “Invention assay % enh” value [1, 3] is reported as −2.4% and the “Invention assay % inh” value [1, 3] is reported as 13.1%. For the same molecule, the “Calcium-based assay % stim” value [2, 3] was 130.0%, the “Calcium-based assay % enh” value [2, 3] was 115.1% and the “Calcium-based assay % inh” value [2, 3] was −46.9%.

For NCCOB(c1ccccc1)c1ccccc1 [2-APB], the “Invention assay % stim” value [1, 3] was −4.7%, the “Invention assay % enh” value [1, 3] was 6.3% and the “Invention assay % inh” value [1, 3] was 10.5%. For the same molecule, the “Calcium-based assay % stim” value [2, 3] was 3.7%, the “Calcium-based assay % enh” value [2, 3] was 4.8% and the “Calcium-based assay % inh” value [2, 3] was 30.3%.

For CCCCCC(O)/C=C/C=O (stereo not shown) [4-Hydroxynonenal], the “Invention assay % stim” value [1, 3] was −14.9%, the “Invention assay % enh” value [1, 3] was −3.5% and the “Invention assay % inh” value [1, 3] was 29.9%. For the same molecule, the “Calcium-based assay % stim” value [2, 3] was 1.4%, the “Calcium-based assay % enh” value [2, 3] was −7.3% and the “Calcium-based assay % inh” value [2, 3] was 118.9%.

For COC(=O)C1=C(C)NC(C)=C([N+](=O)[O-])[C@@H]1c1ccccc1C(F)(F)F [(R)-(+)-Bay K 8644], the “Invention assay % stim” value [1, 3] was −8.2%, the “Invention assay % enh” value [1, 3] was 4.7% and the “Invention assay % inh” value [1, 3] was 11.4%. For the same molecule, the “Calcium-based assay % stim” value [2, 3] was 26.8%, the “Calcium-based assay % enh” value [2, 3] was 77.8% and the “Calcium-based assay % inh” value [2, 3] was −66.5%.

In the case of COC(=O)C1=C(C)NC(C)=C([N+](=O)[O-])[C@H]1c1ccccc1C(F)(F)F [(S)-(−)-Bay K 8644], the “Invention assay % stim” value [1, 3] is reported as −8.0%, the “Invention assay % enh” value [1, 3] is reported as −3.6% and the “Invention assay % inh” value [1, 3] is reported as 14.6%. For the same molecule, the “Calcium-based assay % stim” value [2, 3] was 16.1%, the “Calcium-based assay % enh” value [2, 3] was 59.8% and the “Calcium-based assay % inh” value [2, 3] was −65.0%.

With Nc1ncnc2c1ncn2[C@@H]1O[C@H](COP(=O)(O)OP(=O)(O)OP(=O)(O)O)[C@@H](O)[C@H]1O [ATP] the “activation of the chimeric M4R (BRET)” value [1] was “lack of activation”.

With Cn1c2c(c(=O)n(C)c1=O)C(c1cccc(Br)c1)C1=C(N2)c2ccccc2C1=O (stereo not shown) [BPIPP] the “Invention assay % stim” value [1, 3] was 1.3%, the “Invention assay % enh” value [1, 3] was 8.3% and the “Invention assay % inh” value [1, 3] was 1.5%. For the same molecule, the “Calcium-based assay % stim” value [2, 3] was 18.1%, the “Calcium-based assay % enh” value [2, 3] was 62.6% and the “Calcium-based assay % inh” value [2, 3] was −29.2%.

C[C@H]1CCC/C=C/[C@@H]2C[C@H](O)C[C@H]2[C@H](O)/C=C/C(=O)O1 [Brefeldin A] was tested, and the “Invention assay % stim” value [1, 3] was −2.5%, the “Invention assay % enh” value [1, 3] was −1.9% and the “Invention assay % inh” value [1, 3] was 12.7%. For the same molecule, the “Calcium-based assay % stim” value [2, 3] was 5.2%, the “Calcium-based assay % enh” value [2, 3] was 32.3% and the “Calcium-based assay % inh” value [2, 3] was −19.5%.

For O=C(N/N=C/c1ccc(O)c(O)c1)c1cc2ccccc2cc1O [Dynamin Inhibitor I], the “Invention assay % stim” value [1, 3] was −8.0%, the “Invention assay % enh” value [1, 3] was 23.9% and the “Invention assay % inh” value [1, 3] was −3.5%. The “Calcium-based assay % stim” value [2, 3] was 13.4%, the “Calcium-based assay % enh” value [2, 3] was 92.3% and the “Calcium-based assay % inh” value [2, 3] was −73.7%.

With COC(=O)c1c(C)[nH]c(C)c1C(=O)c1ccccc1Cc1ccccc1 [FPL 64176] the “Invention assay % stim” value [1, 3] was −8.4%, the “Invention assay % enh” value [1, 3] was 7.5% and the “Invention assay % inh” value [1, 3] was 10.0%. For the same molecule, the “Calcium-based assay % stim” value [2, 3] was 48.9%, the “Calcium-based assay % enh” value [2, 3] was 59.7% and the “Calcium-based assay % inh” value [2, 3] was −66.6%.

C=C[C@@]1(C)CC(=O)[C@]2(O)[C@@]3(C)[C@@H](O)CCC(C)(C)[C@@H]3[C@H](O)[C@H](OC(C)=O)[C@@]2(C)O1 [FSK] was tested, and the “Invention assay % stim” value [1, 3] was −5.0%, the “Invention assay % enh” value [1, 3] was −3.6% and the “Invention assay % inh” value [1, 3] was 11.8%. For the same molecule, the “Calcium-based assay % stim” value [2, 3] was 57.8%, the “Calcium-based assay % enh” value [2, 3] was 58.3% and the “Calcium-based assay % inh” value [2, 3] was −22.4%.

With CN(C)CCCn1cc(C2=C(c3c[nH]c4ccccc34)C(=O)NC2=O)c2ccccc21 [GF 109203X] the “Invention assay % stim” value [1, 3] was 2.2%, the “Invention assay % enh” value [1, 3] was 7.4% and the “Invention assay % inh” value [1, 3] was 29.5%. For the same molecule, the “Calcium-based assay % stim” value [2, 3] was 154.3%, the “Calcium-based assay % enh” value [2, 3] was 84.3% and the “Calcium-based assay % inh” value [2, 3] was −10.0%.

In the case of O=C1Nc2ccc(I)cc2/C1=C/c1cc(Br)c(O)c(Br)c1 [GW 5074], the “Invention assay % stim” value [1, 3] is reported as −6.8%, the “Invention assay % enh” value [1, 3] is reported as 2.8% and the “Invention assay % inh” value [1, 3] is reported as 13.5%. The “Calcium-based assay % stim” value [2, 3] was 879.7%, the “Calcium-based assay % enh” value [2, 3] was 151.4% and the “Calcium-based assay % inh” value [2, 3] was −23.8%.

With O=C1OC2(c3ccccc31)c1ccc(O)c(O)c1Oc1c2ccc(O)c1O [Gallein] the “Invention assay % stim” value [1, 3] was 3.9%, the “Invention assay % enh” value [1, 3] was 5.1% and the “Invention assay % inh” value [1, 3] was 5.3%. The “Calcium-based assay % stim” value [2, 3] was 11.7%, the “Calcium-based assay % enh” value [2, 3] was 42.9% and the “Calcium-based assay % inh” value [2, 3] was −22.2%.

C[C@H](CCC(=O)O)C[C@H](C)C[C@H](C)C(=O)/C=C(\O)[C@H](C)C[C@H](C)C/C=C/[C@@H](C)[C@@H](O)[C@@H](C)[C@@H](O)C[C@@H]1CC[C@@](C)([C@H]2CC[C@@](C)([C@@H](C)O)O2)O1 [Ionomycin calcium salt] was tested, and the “Invention assay % stim” value [1, 3] was −11.8%, the “Invention assay % enh” value [1, 3] was −2.5% and the “Invention assay % inh” value [1, 3] was 14.6%. For the same molecule, the “Calcium-based assay % enh” value ([2]; * @ 3uM or 3 ug/ml) was 58.8* %, the “Calcium-based assay % stim” value [2, 3] was 488.7% and the “Calcium-based assay % inh” value [2, 3] was 112.2%.

CN([C@@H](Cc1ccc(OS(=O)(=O)c2cccc3cnccc23)cc1)C(=O)N1CCN(c2ccccc2)CC1)S(=O)(=O)c1cccc2cnccc12 [KN-62] was tested, and the “Invention assay % stim” value ([1]; * @ 3uM or 3 ug/ml) was −0.8* %, the “Invention assay % enh” value ([1]; * @ 3uM or 3 ug/ml) was −1.2* % and the “Invention assay % inh” value ([1]; * @ 3uM or 3 ug/ml) was 15.8* %. The “Calcium-based assay % stim” value ([2]; * @ 3uM or 3 ug/ml) was 8.1* % and the “Calcium-based assay % enh” value ([2]; * @ 3uM or 3 ug/ml) was 39.4* %.

With COc1nc2sc(C(=O)NC3CC3)c(N)c2c(C)c1Cl [LY2033298] the “activation of the chimeric M4R (BRET)” value [1] was “activation”.

CCOC(=O)C1=C(C)NC(=S)NC1c1cccc(O)c1 (stereo not shown) [Monastrol] was tested, and the “Invention assay % stim” value [1, 3] was −3.0%, the “Invention assay % enh” value [1, 3] was −0.1% and the “Invention assay % inh” value [1, 3] was 7.0%. For the same molecule, the “Calcium-based assay % stim” value [2, 3] was 4.1%, the “Calcium-based assay % enh” value [2, 3] was 44.7% and the “Calcium-based assay % inh” value [2, 3] was −16.7%.

In the case of CCN1C(=O)C=CC1=O [N-Ethylmaleimide], the “Invention assay % stim” value [1, 3] is reported as −3.4%, the “Invention assay % enh” value [1, 3] is reported as 12.4% and the “Invention assay % inh” value [1, 3] is reported as 16.5%. For the same molecule, the “Calcium-based assay % stim” value [2, 3] was 3.8%, the “Calcium-based assay % enh” value [2, 3] was 0.2% and the “Calcium-based assay % inh” value [2, 3] was 96.9%.

COC(=O)C1=C(C)NC(C)=C(C(=O)OC)C1c1ccccc1[N+](=O)[O-] [Nifedipine] was tested, and the “Invention assay % stim” value [1, 3] was −15.8%, the “Invention assay % enh” value [1, 3] was 5.3% and the “Invention assay % inh” value [1, 3] was 23.2%. The “Calcium-based assay % stim” value [2, 3] was −0.9%, the “Calcium-based assay % enh” value [2, 3] was 8.7% and the “Calcium-based assay % inh” value [2, 3] was 34.8%.

CC[C@H]1/C=C/C=C/C[C@@H](C)[C@H](O)[C@@](C)(O)C(=O)[C@@H](C)[C@H](O)[C@@H](C)C(=O)[C@@H](C)[C@H](O)[C@@H](C)/C=C/C(=O)O[C@@H]2[C@H](C)[C@H](CC1)O[C@]1(CC[C@H](C)[C@H](C[C@@H](C)O)O1)[C@H]2C [Oligomycin] was tested, and the “Invention assay % stim” value [1, 3] was 1.8%, the “Invention assay % enh” value [1, 3] was 3.3% and the “Invention assay % inh” value [1, 3] was 8.5%. For the same molecule, the “Calcium-based assay % stim” value [2, 3] was 3.3%, the “Calcium-based assay % enh” value [2, 3] was 63.8% and the “Calcium-based assay % inh” value [2, 3] was −21.6%.

In the case of Nc1c[n+](N2CCOCC2)no1.[Cl-] [SIN-1 chloride], the “Invention assay % stim” value [1, 3] is reported as −1.3%, the “Invention assay % enh” value [1, 3] is reported as 3.6% and the “Invention assay % inh” value [1, 3] is reported as 6.6%. The “Calcium-based assay % stim” value [2, 3] was 5.1%, the “Calcium-based assay % enh” value [2, 3] was 19.4% and the “Calcium-based assay % inh” value [2, 3] was 17.1%.

For AG 10, the “Invention assay % stim” value [1, 3] was −13.0%, the “Invention assay % enh” value [1, 3] was −0.1% and the “Invention assay % inh” value [1, 3] was 8.6%. The “Calcium-based assay % stim” value [2, 3] was 2.3%, the “Calcium-based assay % enh” value [2, 3] was 3.8% and the “Calcium-based assay % inh” value [2, 3] was 41.6%.

In the case of Thapsigargin, the “Invention assay % stim” value [1, 3] is reported as −0.7%, the “Invention assay % enh” value [1, 3] is reported as −4.2% and the “Invention assay % inh” value [1, 3] is reported as 10.8%. The “Calcium-based assay % stim” value [2, 3] was 129.5%, the “Calcium-based assay % enh” value [2, 3] was 49.8% and the “Calcium-based assay % inh” value [2, 3] was 11.6%.
